Results from patent publication US11337950B2, “Biologically active cannabidiol analogs” (University of Mississippi, priority 2016, dated 2022).
“And” between values parts separate entries of the source, which are not always exact repeats. Equal entries are not always repeated. Where two headings read alike, the source gives them in different places.

Legend:
[1] = Bioavailability of CBD-Mono-VHS from a lipophilic suppository (Example 16); type: in vivo; design: unit not given here; conditions: rats, rectal 7.5 mg, Lipophilic (Wecobee M) Suppository; for Plasma Concentration of CBD-Mono-VHS: individual animals
Method: CBD-Mono-Val-Mono-HS was formulated in Wecobee M suppository base (a triglyceride lipophilic base) at 75 mg/mL of melted base. The study was carried out in a cannulated rat model. Three animals were administered 100 μl. each of the semisolid formulation for a rectal dose of 7.5 mg CBD-Mono-VHS. This is followed by collection of blood samples (250 μl.) at each data point (0, 0.25, 0.5, 1, 2, 4, 6, and 24 hr.). The blood was centrifuged and the plasma was used for LC-MS/MS analysis.

[2] = type: physicochemical; conditions: for Concentration of CBD-Mono-Val-Mono-HS: 37° C.
Method: The stability CBD and CBD analogs (CBD-Mono-VHS and CBD-Di-VHS) was evaluated under acidic and alkaline conditions to simulate exposure to gastric and intestinal fluids. The procedure is outlined as follows: • 1. Stock solution of 5 mg/mL CBD, CBD-Mono-Val-Mono HS, CBD-Di-Val-Di HS was prepared. • 2. Simulated Gastric Fluid (pH 1.2)+1% (SDS) was prepared and kept in 37° C. water bath. • 3. Physiological buffer (pH 7.4)+1% SDS was prepared and kept in 37° C. water bath. • 4. 100 μL of CBD, CBD-Mono-Val-Mono HS or CBD-Di-Val-Di-HS stock in acetonitrile (equivalent to 500 μg) was spiked into separate vials containing 5 ml of either pH 1.2 and 7.4. • 5. At each time point, 100 μL of the solution was withdrawn. • 6. 900 μL acetonitrile was added to each sample. • 7. All samples centrifuged at 4° C. and 13,000 rpm. • 8. 100 μL of the supernatant was withdrawn; to this 100 μL of supernatant, 900 μL of acetonitrile was added and placed in LC vials for analysis. Tables 9, 10 and 11, and FIGS. 7a, 7b, 18, and 19 show the results.

[3] = Plasma and organ concentrations of CBD and CBD-Mono-VHS after IP administration (Example 22); type: in vivo; conditions: mice
Method: CBD-Mono-VHS was administered intraperitoneally to mice at 2 doses (30 μg and 60 μg equivalent of CBD/mouse). Seventy minutes after dosing the animals (3 mice in each dose group), all animals were sacrificed. Blood, as well as organs (liver, spleen, kidney, and brain), were harvested for LC-MS/MS analysis of their content of both CBD and CBD-Mono-VHS.
Also shown is the concentration of CBD-Mono-VHS in the plasma 70 minutes after dosing.

[4] = IP CBD-Mono-VHS, High Dose (60 μg CBD/mouse), 70 Minutes, AVG.
[5] = IP CBD-Mono-VHS, High Dose (60 μg CBD/mouse), 70 Minutes, individual animals

SMILES: C=C(C)C1CCC(C)=CC1c1c(O)cc(CCCCC)cc1OC(=O)[C@@H](NC(=O)CCC(=O)O)C(C)C (stereo partly shown) [CBD-Mono-VHS, CBD-Mono-Valinate-Mono-Hemisuccinate]
- Plasma Concentration of CBD-Mono-VHS, Average ([1]; 0 hr): 0.0
- Plasma Concentration of CBD-Mono-VHS ([1]; 0 hr): 0.0
- Plasma Concentration of CBD-Mono-VHS, Average ([1]; 0.25 hr): 6.0
- Plasma Concentration of CBD-Mono-VHS ([1]; 0.25 hr): 7.1 (2×) and 3.9
- Plasma Concentration of CBD-Mono-VHS, Average ([1]; 0.5 hr): 11.1
- Plasma Concentration of CBD-Mono-VHS ([1]; 0.5 hr): 9.0 and 12.8 and 11.6
- Plasma Concentration of CBD-Mono-VHS, Average ([1]; 1 hr): 15.5
- Plasma Concentration of CBD-Mono-VHS ([1]; 1 hr): 14.1 and 13.8 and 18.5
- Plasma Concentration of CBD-Mono-VHS, Average ([1]; 2 hr): 20.6
- Plasma Concentration of CBD-Mono-VHS ([1]; 2 hr): 12.7 and 14.5 and 34.6
- Plasma Concentration of CBD-Mono-VHS, Average ([1]; 4 hr): 31.5
- Plasma Concentration of CBD-Mono-VHS ([1]; 4 hr): 22.0 and 27.5 and 45.1
- Plasma Concentration of CBD-Mono-VHS, Average ([1]; 6 hr): 39.8
- Plasma Concentration of CBD-Mono-VHS ([1]; 6 hr): 24.8 and 41.6 and 53.0
- Plasma Concentration of CBD-Mono-VHS, Average ([1]; 24 hr): 17.2
- Plasma Concentration of CBD-Mono-VHS ([1]; 24 hr): 7.3 and 44.3
- Concentration of CBD-Mono-Val-Mono-HS ([2]; Acid (pH 1.2), Time Point 0): 941 ng/mL
- Concentration of CBD-Mono-Val-Mono-HS ([2]; Acid (pH 1.2), Time Point 15): 1380 ng/mL
- Concentration of CBD-Mono-Val-Mono-HS ([2]; Acid (pH 1.2), Time Point 30): 1472 ng/mL
- Concentration of CBD-Mono-Val-Mono-HS ([2]; Acid (pH 1.2), Time Point 60): 1579 ng/mL
- Concentration of CBD-Mono-Val-Mono-HS ([2]; Acid (pH 1.2), Time Point 90): 1478 ng/mL
- Concentration of CBD-Mono-Val-Mono-HS ([2]; Acid (pH 1.2), Time Point 120): 1519 ng/mL
- Concentration of CBD-Mono-Val-Mono-HS ([2]; Base (pH 7.4), Time Point 0): 886 ng/mL
- Concentration of CBD-Mono-Val-Mono-HS ([2]; Base (pH 7.4), Time Point 15): 1439 ng/mL
- Concentration of CBD-Mono-Val-Mono-HS ([2]; Base (pH 7.4), Time Point 30): 1197 ng/mL
- Concentration of CBD-Mono-Val-Mono-HS ([2]; Base (pH 7.4), Time Point 60): 1791 ng/mL
- Concentration of CBD-Mono-Val-Mono-HS ([2]; Base (pH 7.4), Time Point 90): 1615 ng/mL
- Concentration of CBD-Mono-Val-Mono-HS ([2]; Base (pH 7.4), Time Point 120): 1731 ng/mL
- Stability under acidic (gastric juice) conditions, in words ([2]; pH 1.2, 37° C.): stable
- Stability under physiologic / intestinal juice conditions, in words ([2]; pH 7.4, 37° C.): stable
- Blood brain barrier passage, in words ([3]; IP 30 and 60 μg, 70 minutes): crosses the blood brain barrier
- Organ concentrations after IP administration, in words ([3]; IP 30 and 60 μg, 70 minutes): high concentrations of the drug in all organs tested in a dose proportional manner
- CBD Plasma Concentration, AVG. [3, 4]: 0.00 ng/mL
- Total CBD, Brain, AVG. [3, 4]: 0.95 ng
- Total CBD, Kidney, AVG. [3, 4]: 11.15 ng
- Total CBD, Liver, AVG. [3, 4]: 295.11 ng
- Total CBD, Spleen, AVG. [3, 4]: 64.42 ng
- Total CBD, Total, AVG. ([3]; IP CBD-Mono-VHS, High Dose (60 μg CBD/mouse), 70 Minutes, AVG., sum of the columns): 371.63 ng
- CBD Plasma Concentration [3, 5]: 0.00 ng/mL
- Total CBD, Brain [3, 5]: 0.00 ng (2×) and 2.86 ng
